{"source": "patent US20080255139A1", "about": "“Use Of 4- (4-Methylpiperazin-1-Ylmethyl)-N-[4-Methyl-3-(4-(Pyridin-3-Yl)Pyrimidin-2-Ylamino)Phenyl]-Benzamide to Inhibit the Tyrosine Kinase Receptor C-Fms” (priority 2004, published 2008)", "key": {"[1]": {"test_system": "FDC-cfms cells (M-CSF dependent, c-fms)", "conditions": "for Cell count, M-CSF, 12 H: 0 μM control 132174; for Cell count, M-CSF, 24 H: 0 μM control 310859; for Cell count, M-CSF, 48 H: 0 μM control 1453642"}, "[2]": {"test_system": "M-CSF production by the cultured monocytes", "experiment": "M-CSF ELISA on GM-CSF stimulated monocyte cultures", "assay_type": "cell-based, human", "method": "M-CSF ELISA. Monocytes are isolated from buffy coats from normal donors, as previously described, e.g. in Dewar A et al., 2003, Leukemia 17:1713-21. Monocyte cultures (1×10^5/mL) are established in 24 well plates in serum deprived medium (SDM; IMDM/1% BSA supplemented with 2 mM L-glutamine, 200 μg/mL transferrin, 10 μg/mL insulin (Actrapid®, Novo Nordisk), 10^−4 M β-mercaptoethanol, 50 μg/mL low density lipoproteins (Sigma)) and stimulated with 20 ng/mL GM-CSF. Supernatants are harvested at 24 h intervals for 5 days, and analysed for M-CSF using an R&D Systems DuoSete ELISA development system according to the manufacturers instructions."}, "[3]": {"test_system": "FDC-cfms cells (M-CSF dependent, c-fms)", "experiment": "cells", "conditions": "12 h, read-out: inhibition of cell growth, M-CSF sole stimulation"}, "FDC-cfms cells": {"test_system": "FDC-cfms cells", "conditions": "for Cell count, IL-3, 12 H: 0 μM control 125433; for Cell count, IL-3, 24 H: 0 μM control 257726; for Cell count, IL-3, 48 H: 0 μM control 1123171"}}, "note": "“Also recorded” adds a separate entry of the source. Like-named read-outs stand apart in the source and are kept apart here."}
{"smiles": "Cc1ccc(NC(=O)c2ccc(CN3CCN(C)CC3)cc2)cc1Nc1nccc(-c2cccnc2)n1", "note": "[Compound I, 4-(4-methylpiperazin-1-ylmethyl)-N-[4-methyl-3-(4-(pyridin-3-yl)pyrimidin-2-ylamino)phenyl]-benzamide]", "values": [{"measurement": "cell counts, M-CSF", "setting": "[1]; 24 h, 5.0 μM Compound I", "result": "lower than seeded values"}, {"measurement": "Cell count, M-CSF, 12 H", "setting": "[1]; Compound I 0.5 μM", "result": 133296, "unit": "cells/mL"}, {"measurement": "Cell count, M-CSF, 24 H", "setting": "[1]; Compound I 0.5 μM", "result": 339185, "unit": "cells/mL"}, {"measurement": "Cell count, M-CSF, 48 H", "setting": "[1]; Compound I 0.5 μM", "result": 1577777, "unit": "cells/mL"}, {"measurement": "Cell count, M-CSF, 12 H", "setting": "[1]; Compound I 1 μM", "result": 130010, "unit": "cells/mL"}, {"measurement": "Cell count, M-CSF, 24 H", "setting": "[1]; Compound I 1 μM", "result": 311035, "unit": "cells/mL"}, {"measurement": "Cell count, M-CSF, 48 H", "setting": "[1]; Compound I 1 μM", "result": 1362802, "unit": "cells/mL"}, {"measurement": "Cell count, M-CSF, 12 H", "setting": "[1]; Compound I 5 μM", "result": 68324, "unit": "cells/mL"}, {"measurement": "Cell count, M-CSF, 24 H", "setting": "[1]; Compound I 5 μM", "result": 20830, "unit": "cells/mL"}, {"measurement": "Cell count, M-CSF, 48 H", "setting": "[1]; Compound I 5 μM", "result": 20149, "unit": "cells/mL"}, {"measurement": "Cell count, M-CSF, 12 H", "setting": "[1]; Compound I […]", "result": 117025, "unit": "cells/mL"}, {"measurement": "Cell count, M-CSF, 24 H", "setting": "[1]; Compound I […]", "result": 174818, "unit": "cells/mL"}, {"measurement": "Cell count, M-CSF, 48 H", "setting": "[1]; Compound I […]", "result": 295134, "unit": "cells/mL"}, {"measurement": "effect on M-CSF production by the cultured monocytes", "setting": "[2]; 1.0 μM Compound I, GM-CSF 20 ng/mL", "result": "no effect"}, {"measurement": "decrease in M-CSF production", "setting": "[2]; 5.0 μM, GM-CSF stimulated monocytes", "result": 30, "unit": "%"}, {"measurement": "inhibition at 5 µM", "setting": "[3]", "result": 50, "unit": "%"}, {"measurement": "effect on cell growth, IL-3 stimulated control cultures", "setting": "FDC-cfms cells; 12 or 24 h, 0.5-5.0 μM Compound I", "result": "no Compound I-specific effects on cell growth; also recorded: No effect"}, {"measurement": "Cell count, IL-3, 12 H", "setting": "FDC-cfms cells; Compound I 0.5 μM", "result": 131724, "unit": "cells/mL"}, {"measurement": "Cell count, IL-3, 24 H", "setting": "FDC-cfms cells; Compound I 0.5 μM", "result": 281975, "unit": "cells/mL"}, {"measurement": "Cell count, IL-3, 48 H", "setting": "FDC-cfms cells; Compound I 0.5 μM", "result": 1107666, "unit": "cells/mL"}, {"measurement": "Cell count, IL-3, 12 H", "setting": "FDC-cfms cells; Compound I 1 μM", "result": 126472, "unit": "cells/mL"}, {"measurement": "Cell count, IL-3, 24 H", "setting": "FDC-cfms cells; Compound I 1 μM", "result": 264007, "unit": "cells/mL"}, {"measurement": "Cell count, IL-3, 48 H", "setting": "FDC-cfms cells; Compound I 1 μM", "result": 1068150, "unit": "cells/mL"}, {"measurement": "Cell count, IL-3, 12 H", "setting": "FDC-cfms cells; Compound I 5 μM", "result": 106917, "unit": "cells/mL"}, {"measurement": "Cell count, IL-3, 24 H", "setting": "FDC-cfms cells; Compound I 5 μM", "result": 197435, "unit": "cells/mL"}, {"measurement": "Cell count, IL-3, 48 H", "setting": "FDC-cfms cells; Compound I 5 μM", "result": 682771, "unit": "cells/mL"}, {"measurement": "Cell count, IL-3, 12 H", "setting": "FDC-cfms cells; Compound I […]", "result": 131857, "unit": "cells/mL"}, {"measurement": "Cell count, IL-3, 24 H", "setting": "FDC-cfms cells; Compound I […]", "result": 247613, "unit": "cells/mL"}, {"measurement": "Cell count, IL-3, 48 H", "setting": "FDC-cfms cells; Compound I […]", "result": 940233, "unit": "cells/mL"}]}
